Source: PMC10706425, “Enhancing the Antimicrobial Properties of Peptides through Cell-Penetrating Peptide Conjugation: A Comprehensive Assessment” (International Journal of Molecular Sciences, 2023)

Columns and labels:
S. aureus (209P strain) = test: Antibacterial activity in liquid medium; format: cell-based, Staphylococcus aureus; conditions: for Peptide Activity in Liquid Medium after 15 h of Incubation (Gentamicin as Positive Control): 209P strain, Mueller–Hinton broth, 37 °C, 2% DMSO; for Concentrations at which the peptide showed an antimicrobial effect (comparable to gentamicin): 15 h incubation, tested 0.75–12 µM, gentamicin 200 µM, Figures 3, 4
Source text: (§1) Two S. aureus strains were used: a susceptible strain 209P and a clinical isolate strain 129B (resistant to antibiotics: benzylpenicillin, clindamycin, erythromycin, oxacillin, sulfamethoxazole, and vancomycin). Two MRSA strains were included: a susceptible strain ATCC 43300 (resistant to antibiotics: methicillin, oxacillin (beta-lactam antibiotics), ampicillin (https://www.atcc.org/products/43300 (accessed on 11 November 2023)) and a clinical isolate strain SA 180 (resistant to antibiotics: benzylpenicillin and oxacillin (beta-lactam antibiotics), ciprofloxacin, clindamycin, erythromycin, levomycetin, sulfamethoxazole, and vancomycin). One B. cereus was used: a susceptible strain, IP 5832. Two P. aeruginosa strains were included: a susceptible strain, ATCC 28753, and a resistant strain, 2943. Two E. coli strains were used: a susceptible strain, K12, and a susceptible strain, MG1655.
(§2) Determination of the growth for the bacteria S. aureus strain 209P, MRSA strain ATCC 43300, B. cereus strain IP 5832, P. aeruginosa strain ATCC 28753, and E. coli strain K12 was performed using Mueller–Hinton Broth (MHB) (Sigma-Aldrich, St. Louis, MO, USA). Bacteria of S. aureus (strain 129B) and MRSA (strain SA 180-F) were grown on the brain-heart infusion (BHI) medium, and bacteria of P. aeruginosa (strain 2943) and E. coli (strain MG1655) were grown on the LB medium. The preparation and co-incubation of peptides with bacteria were carried out as described previously. The samples were grown at 37 °C.

MRSA (ATCC 43300 strain) = test: Antibacterial activity in liquid medium; format: cell-based, Methicillin-resistant Staphylococcus aureus; conditions: for Concentrations at which the peptide showed an antimicrobial effect (comparable to gentamicin): 15 h incubation, tested 0.75–12 µM, gentamicin 200 µM, Figures 3, 4; for Peptide Activity in Liquid Medium after 15 h of Incubation (Gentamicin as Positive Control): ATCC 43300 strain, Mueller–Hinton broth, 37 °C, 2% DMSO
Source text: as §1, §2

[1] = tested on: P. aeruginosa (ATCC 28753 strain); test: Antibacterial activity in liquid medium; format: cell-based, Pseudomonas aeruginosa; conditions: for Concentrations at which the peptide showed an antimicrobial effect (comparable to gentamicin): 15 h incubation, tested 0.75–12 µM, gentamicin 200 µM, Figures 3, 4; for Peptide Activity in Liquid Medium after 15 h of Incubation (Gentamicin as Positive Control): ATCC 28753, Mueller–Hinton broth, 37 °C, 2% DMSO
Source text: as §1, §2

E. coli (K12 strain) = test: Antibacterial activity in liquid medium; format: cell-based, Escherichia coli; conditions: for Peptide Activity in Liquid Medium after 15 h of Incubation (Gentamicin as Positive Control): K12 strain, Mueller–Hinton broth, 37 °C, 2% DMSO; for Concentrations at which the peptide showed an antimicrobial effect (comparable to gentamicin): 15 h incubation, tested 0.75–12 µM, gentamicin 200 µM, Figures 3, 4
Source text: as §1, §2

E. coli (MG1655 strain) = test: Antibacterial activity in liquid medium; format: cell-based, Escherichia coli; conditions: LB medium, 37 °C
Source text: as §1, §2

[2] = tested on: B. cereus (IP 5832 strain); test: Antibacterial activity in liquid medium; format: cell-based, Bacillus cereus; conditions: 15 h incubation; tested 0.75–12 µM; gentamicin 200 µM; Figures 3, 4
Source text: as §1, §2

S. aureus (129B strain) = test: Antibacterial activity in liquid medium, clinical isolate; format: cell-based, Staphylococcus aureus; conditions: BHI medium, 37 °C
Source text: as §1, §2

MRSA (SA 180-F strain) = test: as above; format: cell-based, Methicillin-resistant Staphylococcus aureus; conditions: BHI medium, 37 °C
Source text: as §1, §2

[3] = tested on: P. aeruginosa (2943 strain); test: Antibacterial activity in liquid medium, resistant strain; format: cell-based, Pseudomonas aeruginosa; conditions: LB medium, 37 °C
Source text: as §1, §2

human skin fibroblasts [4] = test: Cytotoxic effect, calcein AM / propidium iodide flow cytometry; format: cell-based; conditions: 50 µg/mL, with and without pre-incubation; 96 h
Description: (§3) The culture of normal human fibroblasts was obtained from the skin areas of the inner surface of the forearm of healthy volunteers after their consent using the explant method. All volunteers gave their informed consent for inclusion before they participated in the study. The study was conducted in accordance with the Declaration of Helsinki, and the protocol was approved by the Ethics Committee of ITEB RAS No. 43/2023. The culture of normal human fibroblasts was obtained from the skin areas of the inner surface of the forearm using the explant method. A 5 × 5 mm skin explant was washed for several minutes in phosphate buffer containing 400 μg/mL gentamicin sulfate. […] After the release of cells from the fragments, the cells were detached from the surface of the culture plastic, and the number of cells was determined. […]
The number of living and dead cells was determined by staining cells with the fluorescent dyes calcein AM (Sigma-Aldrich, St. Louis, MO, USA) and propidium iodide (Sigma-Aldrich, St. Louis, MO, USA). […] Live and dead cells were analyzed using a BD Accuri C6 flow cytometer (BD Bioscience, San Jose, CA, USA).

BT474 cells = test: as above; format: cell-based, human; conditions: 50 µg/mL, with and without pre-incubation; 96 h
Description: (§4) BT474 human breast duct carcinoma cells were obtained from the American Collection of Type Cell Cultures (Manassas, Virginia, VA, USA). BT474 cells were cultured in DMEM medium (Sigma-Aldrich, St. Louis, MO, USA) supplemented with 10% fetal calf serum (Gibco, Waltham, MA, USA) and 40 μg/mL gentamicin sulfate (Sigma-Aldrich, St. Louis, MO, USA) at 37 °C under conditions of 5% CO2 in the air.
The number of living and dead cells was determined by staining cells with the fluorescent dyes calcein AM (Sigma-Aldrich, St. Louis, MO, USA) and propidium iodide (Sigma-Aldrich, St. Louis, MO, USA). Cells were detached from the surface of the samples using an Accutase cocktail. Cells were stained in L-15 medium with 1% fetal bovine serum containing 1 μg/mL calcein AM and 2 μg/mL propidium iodide for 25 min at 37 °C. Live and dead cells were analyzed using a BD Accuri C6 flow cytometer (BD Bioscience, San Jose, CA, USA).

human skin fibroblasts [5] = test: Cytostatic effect, cell cycle phases and mitotic activity; format: cell-based; conditions: 50 μg/mL, with and without pre-incubation
Description: as §3
(§5) To determine the mitotic activity, the cells were washed in phosphate-buffered saline (300 g, 5 min) and fixed with 70% ethanol (24 h, −20 °C). Then, they were stained with bisBenzimide H 33342 fluorescent dye at a concentration of 1 μg/mL for 10 min at room temperature, and the number of mitotic cells was counted using a DM 6000 fluorescent microscope (Leica, Wetzlar, Germany). At least 500 cells were analyzed.

BT-474 cells = test: as above; format: cell-based, human; conditions: 50 μg/mL, with and without pre-incubation
Description: as §4
To study the distribution of cells over the phases of the cell cycle, cells were collected, washed in phosphate-buffered saline (300 g, 5 min), and fixed with 70% ethanol (24 h, −20 °C). Staining was carried out for 15 min at 37 °C in the following medium: phosphate-buffered saline, 0.1% Triton X100, 10 μg/mL propidium iodide, and 100 μg/mL RNase (Biolot, St. Petersburg, Russia). The analysis was performed using a BD Accuri C6 flow cytometer (BD Bioscience, San Jose, CA, USA). The obtained results were processed in the ModFit LT 4.1 program.
as §5

[6] = Thioflavin T fluorescence assay for amyloid-like aggregates; format: physicochemical; conditions: 24 h, 37 °C, 450 rpm; 50 mM TrisHCl pH 7.5, 150 mM NaCl, 20% DMSO; 200 µM ThT; peptide up to 190–380 μM (1 mg/mL)
Source text: ThT, a benzothiazole dye, is known for its unique property of binding to amyloids and amyloid-like fibrils. This interaction results in a substantial increase in the fluorescence intensity of ThT, typically observed at a wavelength of around 485 nm.
The spectra of fluorescence intensity of free ThT and in solution with individual peptides were studied by us using the method of fluorescence spectroscopy as described previously.

[7] = over the tested concentration range; cited from earlier work
Description: Analysis of the cytostatic effect was performed on the basis of the distribution of cells by phases of the cell cycle and mitotic activity.

bacteria = conditions: cited from earlier work
Source text: Generally, the mechanisms by which AMPs act against bacteria depend on the properties of the bacterial cell wall. Gram-positive bacteria have a thick peptidoglycan layer, while Gram-negative bacteria have an outer membrane and a thinner peptidoglycan layer, which can impact the effectiveness of different antimicrobial strategies. […] If the peptide contained only the Antp fragment, then, in general, its antimicrobial activity was lower com ...

Sequence	Peptide Activity in Liquid Medium after 15 h of Incubation (Gentamicin as Positive Control) (S. aureus (209P strain))	Concentrations at which the peptide showed an antimicrobial effect (comparable to gentamicin) (S. aureus (209P strain))	Concentrations at which the peptide showed an antimicrobial effect (comparable to gentamicin) (MRSA (ATCC 43300 strain))	Peptide Activity in Liquid Medium after 15 h of Incubation (Gentamicin as Positive Control) (MRSA (ATCC 43300 strain))	Concentrations at which the peptide showed an antimicrobial effect (comparable to gentamicin) [1]	Peptide Activity in Liquid Medium after 15 h of Incubation (Gentamicin as Positive Control) [1]	Peptide Activity in Liquid Medium after 15 h of Incubation (Gentamicin as Positive Control) (E. coli (K12 strain))	Peptide Activity in Liquid Medium after 24 h of Incubation (Meropenem as a Positive Control) (E. coli (MG1655 strain))	Concentrations at which the peptide showed an antimicrobial effect (comparable to gentamicin) [2] [µM]	Peptide Activity in Liquid Medium after 24 h of Incubation (Meropenem as a Positive Control) (S. aureus (129B strain))	Peptide Activity in Liquid Medium after 24 h of Incubation (Meropenem as a Positive Control) (MRSA (SA 180-F strain))	Peptide Activity in Liquid Medium after 24 h of Incubation (Meropenem as a Positive Control) [3]	Cytotoxic effect (human skin fibroblasts [4])	Cytotoxic effect (BT474 cells)	Proliferative activity (cytostatic effect) (human skin fibroblasts [5])	Proliferative activity (cytostatic effect) (BT-474 cells)	ThT fluorescence intensity at ~485 nm [6]	Concentrations at which the peptide showed an antimicrobial effect (comparable to gentamicin) (E. coli (K12 strain))	Cytotoxic effect [7]	Concentration with antibacterial activity, amyloidogenic fragment alone (bacteria) [µM]
ITDFGIFIGLGGGGSRQIKIWFQNRRMKWKK [I31K^P, Amyloidogenic fragment of S1 from P. aeruginosa + CPP2 (Antennapedia fragment), 31 a.a]	>12 µM, 209P strain	did not show strong effects	did not show strong effects	>12 µM, ATCC 43300 strain	not found	>12 µM, ATCC 28753	>12 µM, K12 strain	>2750 µM, MG1655 strain	12	>2750 µM, 129B strain	>2750 µM, SA 180-F strain	>2750 µM, 2943 strain	lacked cytotoxic effects	lacked cytotoxic effects	did not even suppress their proliferative activity	did not even suppress their proliferative activity	–	–	–	–
RKKRRQRRRGGGGITDFGIFIGL [R23L^P]	12 µM	12 µM	12 µM	12 µM	6 to 12 µM	–	12 µM	≥3780 µM, MG1655 strain	1.5 to 12	>3780 µM, 129B strain	>3780 µM, SA 180-F strain	≥3780 µM, 2943 strain	lacked cytotoxic effects	lacked cytotoxic effects	did not even suppress their proliferative activity	did not even suppress their proliferative activity	multiple increase in the fluorescence intensity of ThT	12 µM	not been shown to have significant effects	–
RKKRRQRRRGGGGITDFGIFIGLGGGGSRQIKIWFQNRRMKWKK [R44K^P, CPP1 + amyloidogenic fragment of S1 from P. aeruginosa + CPP2, dihybrid peptide, 44 a.a]	12 µM	12 µM	12 µM	12 µM	6 to 12 µM	6 µM	>12 µM, K12 strain	>1930 µM, MG1655 strain	3 to 12	>1930 µM, 129B strain	>1930 µM, SA 180-F strain	≥1930 µM, 2943 strain	–	–	–	–	–	–	–	–
VTDFGVFVEI [Amyloidogenic fragment from S1 T. thermophilus]	–	–	–	–	–	–	–	–	–	–	–	–	–	–	–	–	–	–	–	913
VTDFGVFVEIGGGGSRQIKIWFQNRRMKWKK [V31K^T]	>12 µM, 209P strain	–	–	>12 µM, ATCC 43300 strain	–	>12 µM, ATCC 28753	>12 µM, K12 strain	>2730 µM, MG1655 strain	–	>2730 µM, 129B strain	>2730 µM, SA 180-F strain	>2730 µM, 2943 strain	–	–	–	–	–	no significant antimicrobial effects	–	–
